“And” between values parts separate entries of the source, which are not always exact repeats. Equal entries are not always repeated. Where two headings read alike, the source gives them in different places. One block for each compound: values may come before it.
Assays:
Test in all cases: Cell proliferation assay: GI50
Assay type in all cases: cell-based, human
[1] = test system: ML-2
Procedure: (§1) Cell proliferation was analyzed using the CellTiter 96 Aqueous One Solution Cell Proliferation Assay (Promega, Madison, WI). This is a colorimetric method for determining the number of viable cells in proliferation. For the assay, suspension cells were cultured in triplicate at a density of 1 × 10^6 cells/mL in 96-well plates (100.000 cells/well, 100 µL/well), using only the 60 inner wells to avoid any border effects. […] Then, the cells were incubated with 100 μL/well of medium and 20 μL/well of CellTiter 96 Aqueous One Solution reagent for 1–3 h. […] The background absorbance was measured in wells with only cell line medium and solution reagent. First, the average of the absorbance from the control wells was subtracted from all other absorbance values. Data were calculated as the percentage of total absorbance of treated cells/absorbance of non-treated cells. The GI50 values of the different compounds were determined using non-linear regression plots made with GraphPad Prism v5 software.

[2] = test system: MOLM-13
Procedure: as §1

[3] = test system: HL-60; settings: read-out: GI50
Procedure: as §1

[4] = test system: MV4-11
Procedure: as §1

GI50 ([2]; Homo sapiens, MOLM-13, MOLM-13): 32 nM
GI50 ([2]; Homo sapiens, MOLM-13, MOLM-13, replicates 1-3, nM for Panobistat and Quisinostat): 23.2 nM
GI50 ([2]; MOLM-13, replicates 1-3, nM for Panobistat and Quisinostat): 41.5 nM and 31.3 nM
GI50 ([3]; HL-60, replicates 1-3, nM for Panobistat and Quisinostat): 15.6 nM and 19.3 nM
GI50 ([3]; Homo sapiens, HL-60, HL-60, replicates 1-3, nM for Panobistat and Quisinostat): 19.1 nM
GI50 ([3]; Homo sapiens, HL-60, HL-60): 18 nM
GI50 ([4]; Homo sapiens, MV4-11, MV4-11): 13 nM
GI50 ([4]; Homo sapiens, MV4-11, MV4-11, replicates 1-3, nM for Panobistat and Quisinostat): 14.5 nM
GI50 ([4]; MV4-11, replicates 1-3, nM for Panobistat and Quisinostat): 13.3 nM and 11.2 nM
SMILES: Cc1[nH]c2ccccc2c1CCNCc1ccc(/C=C/C(=O)NO)cc1 [Panobinostat, reference compound]
GI50 ([1]; Homo sapiens, ML-2, ML-2): 51.6 nM
GI50 ([1]; Homo sapiens, ML-2, ML-2, replicates 1-3, nM for Panobistat and Quisinostat): 46.8 nM
GI50 ([1]; ML-2, replicates 1-3, nM for Panobistat and Quisinostat): 65.3 nM and 42.7 nM

GI50 ([2]; Homo sapiens, MOLM-13, 48 h): 3200 nM
GI50 ([2]; Homo sapiens, MOLM-13, MOLM-13, replicates 1-3, µM for the other inhibitors): 3100 nM
GI50 ([2]; MOLM-13, replicates 1-3, µM for the other inhibitors): 3000 nM and 3600 nM
GI50 ([3]; HL-60, replicates 1-3, µM for the other inhibitors): 4900 nM and 5600 nM
GI50 ([3]; Homo sapiens, HL-60, 48 h): 5200 nM
GI50 ([3]; Homo sapiens, HL-60, HL-60, replicates 1-3, µM for the other inhibitors): 5100 nM
GI50 ([4]; Homo sapiens, MV4-11, 48 h): 2500 nM
GI50 ([4]; Homo sapiens, MV4-11, MV4-11, replicates 1-3, µM for the other inhibitors): 2700 nM
GI50 ([4]; MV4-11, replicates 1-3, µM for the other inhibitors): 2900 nM and 2000 nM
SMILES: O=C(CCCCCCC(=O)Nc1ccccc1)NO [Vorinostat, reference compound]
GI50 ([1]; Homo sapiens, ML-2, 48 h): 4500 nM
GI50 ([1]; Homo sapiens, ML-2, ML-2, replicates 1-3, µM for the other inhibitors): 4300 nM
GI50 ([1]; ML-2, replicates 1-3, µM for the other inhibitors): 4200 nM and 5000 nM
